Key:
[1] = test system: LEPR (Leptin Receptor) mutants; assay: Weight loss and fat loss effect of D-ribose in mouse obesity model; assay type: in vivo; settings: 48 days
Method: Classic obesity model LEPR (Leptin Receptor) mutants (Age 42 day, male) and wild-type FVB strain mice were used in the testing.
D-ribose was feed to mice in D-ribose water solution at concentrations indicated (75 mg/ml and 50 mg/ml). Control animals were feed with water. All animals were fed on normal diet. There was no restriction on the amount of liquid or food consumption.
The liquid and food consumption were measured at 4 day intervals. The actual D-ribose consumption for each animal was calculated based on its liquid intake volume.
Mouse body fat was measured using MiniSpec NMR Analyzer.
P-values were calculated using t-test (unpaired, 2 tails) for data points after 48 days of treatment.
Test results were shown in FIG. 1 and FIG. 2, wherein Square (▪) represents the treatment group, and Circle (●) represents control group. Classic obesity model LEPR (Leptin Receptor) mutants (Age 42 day, male) were used in the testing. The control group was fed with water. Animals were fed on normal diet.

C57BL/6 mice = assay: Whole gut transit time (carmine gavage); assay type: in vivo, mouse; settings: 0.5 ml 75 mg/ml oral gavage, p value=0.004
Method: D-ribose was administered to C57BL/6 mice of 8 weeks old. Before administering, mice were fasted for 18 hours with free access to water and housed on a mesh plate without bedding. The mice were orally fed with 0.5 ml carmine solution (6% carmine in 0.5% methylcellulose) containing either 75 mg/ml D-ribose or xylose. After oral force gavage, mice were returned to individually housed mesh bottom cages, which were placed on a white sheet. Whole gut transit time is the time taken from carmine meal gavage to the appearance of the first red fecal pellets.

Wistar rats = settings: 13 weeks, cited from earlier work

O=C[C@H](O)[C@H](O)[C@H](O)CO [D-ribose]
fat gain (body fat measurement) ([1]; 50 mg/ml in water, 20.59 gram/kg/day, data not shown): reduced fat gain but not statistically significant | weight gain vs control animals ([1]; 50 mg/ml in water, 20.59 gram/kg/day, obese LEPR mutant male mice, p-value 0.001): statistically significantly decreased weight gain | body fat (NMR) vs control animals ([1]; 75 mg/ml in water, 30.03 gram/kg/day, obese LEPR mutant male mice, p-value 0.00015): fat loss | body weight vs control animals ([1]; 75 mg/ml in water, 30.03 gram/kg/day, obese LEPR mutant male mice, p-value 0.01): statistically significant weight loss | gut transition time vs xylose control (C57BL/6 mice): shortened gut transition time | NOAEL, females (Wistar rats; female rats, 5% in diet): 4.4 g/kg body weight/day | NOAEL, males (Wistar rats; male rats, 5% in diet): 3.6 g/kg body weight/day | no observed adverse effect level (NOAEL), concentration in the diet (Wistar rats; rats, in diet): 5% | effect at up to 20% of diet (Wistar rats; rats, up to 20% of diet (15.0 and 15.7 g/kg body weight/day males and females)): nutritional but not toxicological effect
